Data reported in publication PMC8836905, “Structural and Biochemical Analysis of the Furan Aldehyde Reductase YugJ from Bacillus subtilis” (International Journal of Molecular Sciences, 2022).
Each block holds one compound with its values, some of them ahead of it.

What was measured:
YugJ [1] = molecular target: T1, YugJ (Bacillus spizizenii, UniProt Z9GGM4DFS4); assay: X-ray crystal structure; assay type: binding
T1 construct: full-length residues 1-387; N-terminal His6 tag removed with thrombin; E. coli BL21(DE3); homodimer

YugJ [2] = molecular target: T1, YugJ; assay: NADPH oxidation at […] nm, HMF reduction; assay type: biochemical; details: 3 mM HMF, 0.2 mM NADPH, Ni2+-bound YugJ, 50 mM HEPES pH 7.4, 150 mM NaCl, 23 °C; presumed competitive
[3] = molecular target: YugJ from Bacillus subtilis (furan aldehyde reductase) (B. subtilis subsp. spizizenii) (UniProt O05239); assay: SEC; gel filtration on Superdex 200 10/300 in 20 mM Tris, pH 8.0, 150 mM NaCl, 5 mM β-mercaptoethanol; eluted between 44 and 158 kDa standards

Sequence of YugJ from Bacillus subtilis (furan aldehyde reductase) (O05239 whole entry): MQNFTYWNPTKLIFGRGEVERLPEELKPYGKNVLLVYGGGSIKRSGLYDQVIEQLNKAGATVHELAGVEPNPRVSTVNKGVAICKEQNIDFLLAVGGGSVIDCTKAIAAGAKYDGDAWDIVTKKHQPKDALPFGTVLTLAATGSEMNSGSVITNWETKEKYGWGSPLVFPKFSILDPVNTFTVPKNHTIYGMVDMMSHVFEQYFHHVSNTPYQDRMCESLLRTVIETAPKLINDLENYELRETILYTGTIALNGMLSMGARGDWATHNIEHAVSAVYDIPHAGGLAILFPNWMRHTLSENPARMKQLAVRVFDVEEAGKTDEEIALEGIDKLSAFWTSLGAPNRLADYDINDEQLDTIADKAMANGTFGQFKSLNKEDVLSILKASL

% inhibition at 360 mM lithium nitrate (YugJ [2]): ~ 75%
Compound: O=[N+]([O-])O [nitrate]
X-ray crystal structure (YugJ [1]; 1.65 Å, with NADP, 0.3 M ammonium nitrate in crystallisation, pH 6.5, near nicotinamide ring, putative substrate site): nitrate ion forms hydrogen bonds with the nicotinamide-linked ribose moiety of NADP

stoichiometry N [3]: 2
Compound: YugJ from Bacillus subtilis (furan aldehyde reductase) (from UniProt O05239 1-387) (enzyme)

Compound: NC(=O)c1ccc[n+]([C@@H]2O[C@H](COP(=O)(O)OP(=O)(O)OC[C@H]3O[C@@H](n4cnc5c(N)ncnc54)[C@H](OP(=O)(O)O)[C@@H]3O)[C@@H](O)[C@H]2O)c1 [NADP]
X-ray crystal structure (YugJ [1]; 1.65 Å with nitrate (7W9Z), 1.93 Å with Ni2+, nicotinamide disordered (7W9Y), interdomain cleft): we determined the crystal structures of YugJ in complex with NADP in two crystal forms
